Reference: patent US7931909B2, “Ocular therapy using alpha-2 adrenergic receptor compounds having enhanced anterior clearance rates” (Allergan, Inc., priority 2005, dated 2011)
Like-named read-outs stand apart in the source and are kept apart here. Marks after values point to notes of the source that are not given here. Each block holds one molecule with its values, some of them ahead of it.

Experiments:
[1] = Pharmacokinetics of brimonidine drug delivery systems administered subconjunctivally; format: in vivo, New Zealand White rabbits; details: all samples, subconjunctival drug delivery systems, rabbit
Source text: Thirty groups of rabbits (2 rabbits per group) were used. The groups were divided into 6 sections of 5 groups. […] In each section, one group underwent ophthalmic observation at 5 days after dosing (DAD) and were euthanized at 8 DAD, one group underwent ophthalmic observation at 5 and 29 DAD and were euthanized at 31 DAD, one group underwent ophthalmic observation at 5, 29, and 54 DAD and were euthanized at 60 DAD, and two groups underwent ophthalmic observation at 5, 29, 54, and 86 DAD and were euthanized at 93 DAD.
Eyes were prepared for surgery by topical application of two drops of 1% tropicamide and two drops of phenylephrine hydrochloride 2.5%. Betadine was applied and washed from the eyes, and 1-2 drops of 0.5% proparacaine hydrochloride were delivered to each eye. […] Rods and wafers were administered using forceps. Conjunctivae were sutured closed and received a ocular lubricant. Subconjunctival injections were performed by elevating the bulbar conjunctiva in the dorsotemporal quadrant using forceps. An injection was made into the subconjunctival space.
In the above, the samples were quantified using LC-MS/MS methods with quantitation limits of 10 ng/mL for aqueous and vitreous humor samples, 0.05 ng/mL for plasma samples, 0.5 ng for iris-ciliary body samples, lens samples, and retina samples.

[2] = target: alpha 2 adrenergic receptor; details: read-out: EC50 to activate the alpha 2 adrenergic receptor; isolated assay systems; cited from earlier work
[3] = intravitreal PLA implant, 200 micrograms brimonidine, rabbit eyes
in vivo [4] = details: albino, rabbit, vitreous humor, 928 ng
in vivo [5] = details: rabbit, other: intravitreal implant, 200 micrograms
[6] = tested on: organic cation transporter present in the conjunctiva; details: cited from earlier work
[7] = cited from earlier work

- vitreal clearance rate (as restated in Example 3): 0.487 mL/day
- route of elimination from the vitreous (conclusion from intravitreal clearance, rabbit): trans-retinal route
- Plasma brimonidine concentrations [1]: below the lower limit of quantitation
- Brimonidine Concentration Iris-ciliary body ([3]; Day 8, mean (N = 2)): 942 ng/g
- Brimonidine Concentration Iris-ciliary body, estimated mean value in parentheses ([3]; Day 8, two samples above the limit of quantitation): 3010 ng/g
- Brimonidine Concentration Vitreous humor ([3]; Day 31, mean ± SEM): 9.35 ± 6.25^b ng/mL
- Brimonidine Concentration Lens ([3]; Day 58, mean ± SEM): 17.9 ± 12.5^b ng/g
- Brimonidine Concentration Retina ([3]; Day 58, mean ± SEM): 122 ± 57.3^a ng/g
- Brimonidine Concentration Vitreous humor ([3]; Day 58, mean ± SEM): 5.6 ± 3.24^b ng/mL
- Brimonidine Concentration Iris-ciliary body ([3]; Day 91, mean ± SEM): 42.9 ± 18.7^c ng/g
- Brimonidine Concentration Retina ([3]; Day 91, mean ± SEM): 488 ± 471^b ng/g
- Brimonidine Concentration Lens ([3]; Day 136, mean ± SEM): 16.2 ± 12.3^a ng/g
- Brimonidine Concentration Lens ([3]; Day 184, mean ± SEM): 1.18 ± 0.71^b ng/g
- Brimonidine Concentration Retina ([3]; Day 184, mean ± SEM): 59.8 ± 35.0^b ng/g
- clearance (in vivo [4]): 0.00812 mL/min
- half-life (in vivo [4]): 1.45 h
- concentration at 0.5 h (in vivo [4]; other: intravitreal injection): 608 ± 116 ng/mL
- concentration at 10 h (in vivo [4]; other: intravitreal injection): 9.68 ± 6.48 ng/mL
- concentration at 31 day (in vivo [5]; iris-ciliary body): 25.9 ± 9.11 ng/g
- concentration at 58 day (in vivo [5]; iris-ciliary body): 69.4 ± 55.3 ng/g
- concentration at 136 day (in vivo [5]; iris-ciliary body): 107 ± 41.5 ng/g
- concentration at 8 day (in vivo [5]; lens): 45.1 ± 13.4 ng/g
- concentration at 31 day (in vivo [5]; lens): 17 ± 3.92 ng/g
- concentration at 91 day (in vivo [5]; lens): 50.1 ± 14.8 ng/g
- concentration at 8 day (in vivo [5]; retina): 3630 ± 2110 ng/g
- concentration at 31 day (in vivo [5]; retina): 35.3 ± 15.5 ng/g
- concentration at 136 day (in vivo [5]; retina): 22.6 ± 5.9 ng/g
- concentration at 8 day (in vivo [5]; vitreous humor): 47.2 ± 13.1 ng/mL
- concentration at 91 day (in vivo [5]; vitreous humor): 59.3 ± 43.2 ng/mL
Molecule: Brc1c(NC2=NCCN2)ccc2nccnc12 [brimonidine, 5-bromo-6-(2-imidazolidinylideneamino)quinoxaline]
- EC50 [2]: ~2 nM
- substrate for the organic cation transporter [6]: substrate

Molecule: brimonidine tartrate
- solubility in water ([7]; in water): 34 mg/mL
- solubility in a pH 7.0 phosphate buffer ([7]; pH 7.0 phosphate buffer): 2.4 mg/mL
